Drawing on patent US8273787B2, “Activated cytotoxic compounds for attachment to targeting molecules for the treatment of mammalian disease conditions” (Onconova Therapeutics, Inc, priority 2006, dated 2012), this text covers IC50 and RSIST-ANCE for 2 compounds.

Common to all, as to assay type: cell-based
In experiment [1] the test system is Various tumor cell lines (ATCC). Nature of the experiment: 96 hour growth inhibition, various tumor cell lines. The conditions noted are these: 96 hours exposure, viable cells vs vehicle; read-out: IC50 value range. The method, then:
(§1) Two compounds were selected from our library of cytotoxic molecules for immunoconjugation since they both have IC50 values in the low nanomolar range. Various tumor cell lines (ATCC) were treated for 96 hours in the presence of increasing concentrations of each compound and the total number of viable cells remaining was determined after 96 hours of exposure. The IC50 value was determined to be the amount of drug required to inhibit the growth of each cell line 50% as compared to vehicle treated cells.

A further experiment deals with DU145. Nature of the experiment: 96 hour growth inhibition, DU145. The conditions noted are these: Homo sapiens, DU-145, DU145, PROSTATE (AR−). As for the experimental part: as §1
Another experiment relates to OV-CAR-3. Briefly: 96 hour growth inhibition, OV-CAR-3. To be noted: Homo sapiens, OVCAR-3, OV-CAR-3, OVARIAN. The method, then: as §1
The test system of the next experiment is MIA-PaCa2. Briefly: 96 hour growth inhibition, MIA-PaCa2. To be noted: Homo sapiens, MIA PaCa-2. The method, then:
as §1

The test system of a further experiment is U87. Nature of the experiment: 96 hour growth inhibition, U87. To be noted: Homo sapiens, U-87 MG, U87, GLIOBLASTOMA
As for the experimental part: as §1

The next experiment relates to H157. Briefly: 96 hour growth inhibition, H157. To be noted: Homo sapiens, NCI-H157, H157, NSCLC. As for the experimental part:
as §1

A further experiment deals with A549. Nature of the experiment: 96 hour growth inhibition, A549. To be noted: Homo sapiens, A549, NSCLC. As for the experimental part: as §1
In the next experiment the test system is H187. Briefly: 96 hour growth inhibition, H187. To be noted: Homo sapiens, NCI-H187, H187, SCLC. The method, then:
as §1

For the next experiment, the system named is N417. Briefly: 96 hour growth inhibition, N417. To be noted: N417, SCLC. As for the experimental part:
as §1

A further experiment has as its system RF48. Briefly: 96 hour growth inhibition, RF48. The conditions noted are these: RF48, GASTRIC. As for the experimental part:
as §1

The next experiment deals with HCT-116. Briefly: 96 hour growth inhibition, HCT-116. To be noted: Homo sapiens, HCT-116, COLO-RECTAL. As for the experimental part: as §1
Another experiment has as its system HCT-15. Briefly: 96 hour growth inhibition, HCT-15. The conditions noted are these: Homo sapiens, HCT-15, COLO-RECTAL. The method, then: as §1
For a further experiment, the system named is SK-MEL-28. Nature of the experiment: 96 hour growth inhibition, SK-MEL-28. To be noted: Homo sapiens, SK-MEL-28, MELANOMA
The method, then: as §1

The test system of another experiment is K562. Briefly: 96 hour growth inhibition, K562. The conditions noted are these: Homo sapiens, K562, CML. The method, then: as §1
The next experiment concerns Raji. Briefly: 96 hour growth inhibition, Raji. To be noted: Homo sapiens, Burkitt's Lymphoma (B-cell). As for the experimental part: as §1
The test system of a further experiment is T47D. Nature of the experiment: growth inhibition, breast carcinoma cell line T47D. To be noted: Homo sapiens, BREAST (ER+), HER2 +. The method, then:
as §1
(§2) Certain embodiments of immunoconjugates described herein are targeted to HER2 expressing breast cancer cells. Certain embodiments of immunoconjugates described herein are targeted to multiple myeloma (MM) cell lines expressing the surface antigens CD38 and or CD138. The IC50 value of ON 015100 and ON 013100 was determined for a number of breast cell lines as well as a panel of multiple myeloma cell lines expressing varying levels of each antigen and the data are shown in table (4) and table (5), respectively. […] Two cell lines, SK-BR-3 and BT474, known to express very high levels of HER2 are more than 2 fold more sensitive to ON 013100 as compared to the cell lines which express lower levels of HER2. Marx C., et al., Validated High-Throughput Screening of Drug-Like Small Molecules for Inhibitors of ErbB2 Transcription. Assay Drug Dev. […]

The test system of the next experiment is MCF-7. Briefly: growth inhibition, breast carcinoma cell line MCF-7. To be noted: Homo sapiens, MCF7; MCF-7, BREAST (ER+), HER2 +. The method, then:
as §1, §2

For a further experiment, the system named is RPMI 8266. Briefly: growth inhibition, multiple myeloma cell line RPMI 8266. To be noted: Homo sapiens, RPMI8266; RPMI 8266, multiple myeloma, CD38 + CD138 + CD20 −. As for the experimental part:
as §1
(§3) Pellat-Deceunynk, C., et al., Human Myeloma Cell Lines As A Tool For Studying The Biology Of Multiple Myeloma: A Reappraisal 18 Years After, Blood 86(10):4001-2 (1995); Gooding, R. P., et al., Phenotypic And Molecular Analysis Of Six Human Cell Lines Derived From Patients With Plasma Cell Dyscrasia, British Journal of Haematology 106:669-688 (1999).

A further experiment relates to U266. Nature of the experiment: growth inhibition, multiple myeloma cell line U266. To be noted: Homo sapiens, U-266, CD38 −/+ CD138 + CD20 −. The method, then:
as §1, §3

Another experiment has as its system OPM-2. Briefly: growth inhibition, multiple myeloma cell line OPM-2. The conditions noted are these: Homo sapiens; OPM-2, multiple myeloma, CD38 + CD138 + CD20 −. The method, then:
as §1, §3

The test system of another experiment is MES-SA (PARENTAL). Briefly: growth inhibition, MES-SA (parental). The conditions noted are these: Homo sapiens, uterine sarcoma. As for the experimental part: as §1
(§4) Another extremely important predictive factor is the ability of these compounds to kill cell lines overexpressing multiple drug resistance (MDR) genes. A very high percentage of cancer patient relapses are due to some form of resistance to traditional chemotherapy. Of these patients, the vast majority express one or more of the MDR genes within the ABC transport gene family. Overexpression of these genes increases the efflux of compounds that are recognized by these pumping systems. […] Onconova's benzyl styryl sulfone compounds are not recognized by the MDR-1 gene and therefore provide an advantage over other highly toxic drugs including but not limited to the taxanes, doxorubicin, etoposide, and vinca-alkaloids. […] MES-SA/Dx5, uterine sarcoma, and […], ovarian, are both classical multidrug resistant cell lines that are cross resistant to the taxanes and anthracyclins. Harker, W G, and Sikic, B. I., Multidrug (Pleiotropic) Resistance In Doxorubicin-Selected Variants Of The Human Sarcoma Cell Line MES-SA, Cancer Res. 45(9):4091-6 (1985). MES-SA/Dx5 and Apr. […] Fujimori, A., et al., Mutation At The Catalytic Site Of Topoisomerase I In CEM/C2, A Human Leukemia Cell Line Resistant To Camptothecin, Cancer Res. 55(6): 1339-46 (1995). ON 01500 and ON 013100, for example, are both extremely active against these resistant cell lines.

The test system of a further experiment is 2008/17/4 (RESISTANT). Nature of the experiment: growth inhibition, 2008/17/4 (resistant). To be noted: for RSIST-ANCE: 2008/17/4 (RESISTANT) versus 2008 (PARENTAL); for IC50: 2008/17/4 (RESISTANT), ovarian, multidrug resistant. As for the experimental part: as §1, §4

For `COc1cc(OC)c(/C=C/S(=O)(=O)Cc2ccc(OC)c(N)c2)c(OC)c1` [ON 01500, (E)-2,4,6-trimethoxystyryl-4-methoxy-3-aminobenzylsulfone], the half-inhibitory concentration (IC50) in experiment [1] is 3 to 5 nM; with DU145, 5 nM; in the experiment on OV-CAR-3 it was 3 nM; with MIA-PaCa2, 3 nM; in the experiment on U87 it was 3 nM; with H157, 4 nM. Further, the IC50 in the experiment on A549 turned out to be 3 nM; in the experiment with H187 it was 4 nM; in the experiment on N417, 3 nM; in the experiment on RF48 it was 1 nM; in the experiment with HCT-116, 6 nM; in the experiment with HCT-15, 5 nM. The IC50 in the experiment with SK-MEL-28 came out at 5 nM; with K562, 2.5 nM; in the experiment on Raji, 2 nM; with T47D, 3 nM; in the experiment on MCF-7, 1 nM; with RPMI 8266, 3 nM. For the same compound, the IC50 was determined as 3 nM in the experiment with U266, 3 nM in the experiment with OPM-2, 4 nM in the experiment on MES-SA (PARENTAL) and 3 nM in the experiment with 2008/17/4 (RESISTANT). Moreover, in the experiment with 2008/17/4 (RESISTANT), the RSIST-ANCE is reported as 1.

`COc1cc(OC)c(/C=C/S(=O)(=O)Cc2ccc(OC)c(O)c2)c(OC)c1` [ON 013100, (E)-5-((2,4,6-trimethoxystyrylsulfonyl)methyl)-2-methoxyphenol]: the IC50 is 3 to 5 nM in experiment [1]; 5 nM in the experiment on DU145; 30 nM with OV-CAR-3; 3 nM with MIA-PaCa2; 7 nM in the experiment with U87; 7 nM with H157. In addition, the IC50 in the experiment with A549 is 10 nM; in the experiment on H187, 3 nM; in the experiment on N417, 3 nM; in the experiment with RF48, 1 nM; in the experiment on HCT-116, 6 nM; with HCT-15, 7 nM. Moreover, the IC50 came to 7 nM with SK-MEL-28; 4 nM with K562; 1 nM with Raji; 10 nM with T47D; 10 nM with MCF-7; 5 nM in the experiment on RPMI 8266. Moreover, the IC50 with U266 was 5 nM; in the experiment with OPM-2, 4 nM; in the experiment on MES-SA (PARENTAL), 5 nM; in the experiment on 2008/17/4 (RESISTANT), 6 nM. Besides, the RSIST-ANCE in the experiment on 2008/17/4 (RESISTANT) worked out at 1.3.

One may read the IC50 as the concentration needed to halve the response being measured.
